This is an account of results in patent publication US8217049B2, “Use of type V phosphodiesterase inhibitors in the treatment of exercise induced pulmonary hemorrhage in the equine” (ANOxA Corp., priority 2006, dated 2012).

Values joined by “and” are separate entries in the source; they are usually repeats but may differ in a detail not shown here. Equal entries are not always repeated.

In data set [1] the test system is exercise induced pulmonary hemorrhage (EIPH); blood in the trachea. The data set can be described thus: Endoscopic EIPH scoring (Pascoe et al. 1985) after maximum exercise, placebo-controlled crossover. The format is in vivo. On the set-up: key: 0: Zero indicates an absence of EIPH; 1 to 4 indicated increasing amounts of blood observed endoscopically in the trachea. The settings on record: 10 μg/kg of E4021 prior to maximum exercise (>1,000 meters); videoendoscopy about 60 to 90 minutes after exercise; one value per individual horse (Horse 1-8) with previous EIPH; sesquihydrate. On the procedure:
(§1) Eight horses with previous evidence of EIPH were enrolled in the study. The candidate horses served as their own control and a predetermined rest period (no maximum exercise events) of one week was adhered to prior to initiation of the protocol. On initiation of the trial the subject horse received, prior to maximum exercise, either a dose of 10 μg/kg of weight of E4021 or a placebo. The eight horses were exercised in training/mock racing conditions at maximum intensity for greater than 1,000 meters followed by endoscopic exam/scoring about 60 to 90 minutes after the exercise event. Following exercise, the horses were examined with videoendoscopy for evidence of blood in the trachea about 60 minutes to 90 minutes after maximum exercise. The endoscope was passed to the level of the bifurcation of the trachea (carina) with images recorded on videotape.
An objective scoring system (Pascoe et al. 1985) was used to indicate the presence or absence of EIPH, as well as its severity, if present. […] Scoring was done by the veterinarian conducting the examination, then later by another individual using the recorded examination. […]
The E4021 was administered from vials containing 50 mg of E4021/30 ml. […] The Pl score was after placebo intervention and the post Tx Score was recorded after administration of E4021. […]

Data set [2] is described as follows: Untoward effects and systemic hemodynamics in the treated horses. The conditions noted are these: eight horses, 10 μg/kg of E4021 prior to maximum exercise. Format: in vivo, horse. On the procedure:
as §1

`O.O.O.O=C([O-])C1CCN(c2nc(NCc3ccc4c(c3)OCO4)c3cc(Cl)ccc3n2)CC1.O=C([O-])C1CCN(c2nc(NCc3ccc4c(c3)OCO4)c3cc(Cl)ccc3n2)CC1.[Na+].[Na+]` [E4021]: the “Post Tx (EIPH endoscopic score recorded after administration of E4021)” value in data set [1] is 0 (3×) and 3 and 1 and 2. Besides, in data set [2], the Untoward effects result was “did not experience any untoward effects”. Moreover, the “Systemic hemodynamics (e.g. cardiac output, blood pressure)” value in data set [2] (versus controls) is on record as “remained unchanged from controls”.
